Assay: Solubility of Compound X, Ph. Eur. 6 / USP 33 descriptive terms
Assay type: physicochemical
Source text: In this specification, we are adopting the definitions of solubility from the classification in the European Pharmacopeia 6th Edition and the United States Pharmacopeia 33 (Reference Tables: Description and Solubility):
Further increase in pH results in solubility decrease. […] The pH-dependent solubility profile of Compound X presents certain challenges to the development of pharmaceutical formulations, namely for its dissolution.

Solubility (N,N-methylpyrrolidone): sparingly soluble
Solubility (acetone): slightly soluble
Solubility (acetonitrile): very slightly soluble
Solubility (acidified acetonitrile): sparingly soluble
Solubility (acidified methanol): sparingly soluble
Solubility (acidified water (pH 1.2-2.0)): sparingly soluble
Medium of maximum solubility (aqueous medium): HCl 0.01 (pH 2.0)
pH dependence of solubility in aqueous medium (aqueous medium): decreases as the pH increases
Solubility (chloroform): very slightly soluble
Solubility (cyclohexane): insoluble
Solubility (dichloromethane): slightly soluble
Solubility (dimethyl sulfoxide): sparingly soluble
Solubility (dimethylformamide): sparingly soluble
Solubility (ethanol): practically insoluble
Solubility (ethyl acetate): very slightly soluble
Solubility (iso-octane): insoluble
Solubility (isopropanol): insoluble
Solubility (isopropyl acetate): very slightly soluble
Solubility (methanol): very slightly soluble
Solubility (methyl ethyl ketone): slightly soluble
Solubility (tetrahydrofuran): sparingly soluble
Solubility (toluene): very slightly soluble
Solubility (water): insoluble
SMILES: Fc1cc(F)c2c(c1)C[C@@H](n1c(CCNCc3ccccc3)c[nH]c1=S)CO2 [Compound X]
